Activity calls are given as the source filed them.

These results are taken from ChEMBL document CHEMBL1201862, “PubChem BioAssay data set” (2004).

One experiment deals with MDA-MB-435. The experiment in a line: cells. The format is functional, cell-based. As to conditions: Homo sapiens.
The nature of the next experiment: cells. As to conditions: PPC-1. The experiment is classed as functional, cell-based.
The next experiment addresses T1, Coagulation factor XII (Homo sapiens, UniProt P00748).
T1 sequence (P00748 whole entry): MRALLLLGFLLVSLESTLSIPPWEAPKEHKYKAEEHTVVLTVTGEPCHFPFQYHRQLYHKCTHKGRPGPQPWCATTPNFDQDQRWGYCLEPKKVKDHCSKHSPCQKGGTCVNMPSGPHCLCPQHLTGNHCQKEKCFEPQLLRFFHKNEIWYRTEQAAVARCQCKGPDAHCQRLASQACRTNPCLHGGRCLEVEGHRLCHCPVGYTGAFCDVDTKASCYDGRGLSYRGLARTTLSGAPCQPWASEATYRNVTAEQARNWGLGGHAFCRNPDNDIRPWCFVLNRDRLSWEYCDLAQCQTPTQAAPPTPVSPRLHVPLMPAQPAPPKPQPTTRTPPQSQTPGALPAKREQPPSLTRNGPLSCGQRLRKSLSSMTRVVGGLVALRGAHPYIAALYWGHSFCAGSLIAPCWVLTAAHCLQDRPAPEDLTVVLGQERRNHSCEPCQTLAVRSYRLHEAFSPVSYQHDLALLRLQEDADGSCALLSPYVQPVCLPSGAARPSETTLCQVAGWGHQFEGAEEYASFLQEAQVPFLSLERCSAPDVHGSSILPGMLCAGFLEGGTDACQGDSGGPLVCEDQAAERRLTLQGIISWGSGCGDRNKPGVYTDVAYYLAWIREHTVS
Description: activated coagulation factor XII inhibitor potency, concentration-effect curve, cell-free (AID 716). The format is functional.

Experiment [1] deals with T2, Eukaryotic translation initiation factor 4H (Homo sapiens, UniProt Q15056). The experiment in a line: inhibitors of translation initiation factor eIF4H – SAR follow-up (AID 435011). The format is functional.
Experiment [2] concerns the target T3, Polyadenylate-binding protein 1 (Homo sapiens, UniProt P11940). Description: PABP inhibition in translation initiation, SAR follow-up (AID 435018). The experiment is classed as functional.
Experiment [3] has as its system BJ. Description: BJ-TERT fibroblast viability loss – cell-based, RAS-independent, luminescence, dose response (AID 1933). The format is functional. The following applies: Homo sapiens.
Experiment [4] concerns BJ. The experiment in a line: cells. As to conditions: Homo sapiens. The experiment is classed as functional, cell-based.
Experiment [5] has as its target Luciferin 4-monooxygenase (Photinus pyralis, UniProt P08659). Description: inhibition of purified Photinus pyralis luciferase – biochemical, luminescence, dose response (AID 1891).
Experiment [6] in a line: Luminescence Cell-Based Dose Confirmation HTS to Identify Inhibitors of Platelet Dense Granule Release. [Related pubchem assays: 1663 (Primary HTS), 1678 (Summary of Project)]. The experiment is classed as functional.
Experiment [7] relates to BJ. Description: BJ-TERT-LT-ST fibroblast viability loss – cell-based, RAS-independent, luminescence, dose response (AID 1935).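 Further: BJ fibroblasts immortalized with TERT plus LT and ST oncogenes.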 The format is functional. As to conditions: Homo sapiens.
Experiment [8] in a line: DRD fibroblast viability loss – cell-based, non-viral oncogenic, luminescence, dose response (AID 1934). The experiment is classed as functional. As to conditions: Homo sapiens.
Experiment [9] is described as follows: ADP-Glo luciferase signal interference – biochemical, luminescence, cherry-picked samples, set 2, artefact control for CDK5 inhibitor project, dose response (AID 504546). The format is functional, cell-based.
The target of experiment [10] is Cyclin-dependent kinase 5/CDK5 activator 1 (Homo sapiens, UniProt Q00535). Description: blockade of human CDK5 activity – biochemical, cherry-picked samples, set 2, dose response (AID 504545).
In a further experiment the test system is HEK293. Description: EBV LMP1 TES2 canonical NF-kB signalling blockers – cell-based, HEK293, luciferase, cherry-pick, dose response (AID 588343). The format is functional. As to conditions: Homo sapiens.
Experiment [11] concerns BJ. The experiment in a line: growth inhibition of engineered Ras-driven BJ cells – cell-based, alamar blue fluorescence, cherrypicked samples, dose response (AID 2631).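 Further: confirmatory dose-response assay in RAS-dependent BJ fibroblasts engineered with TERT, LT and ST, with cytotoxicity read by fluorescence.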 The experiment is classed as functional. As to conditions: Homo sapiens.
Experiment [12] addresses T2, Eukaryotic translation initiation factor 4H. The experiment in a line: eIF4H binding inhibition – biochemical, uHTS, fluorescence polarization, translation initiation inhibitor project, primary screen (AID 2012).
For experiment [13], the target named is T3, Polyadenylate-binding protein 1. The experiment in a line: blockers of PABP interaction with poly(A) – biochemical, fluorescence polarization, […] (AID 2014).
Experiment [14] concerns the target DNA dC->dU-editing enzyme APOBEC-3A (Homo sapiens, UniProt P31941). The experiment in a line: Dose Response confirmation of small molecule APOBEC3A DNA Deaminase Inhibitors via a fluorescence-based single-stranded DNA deaminase assay. [Related pubchem assays (depositor defined):AID493011, AID493024]. The format is functional.
For experiment [15], the target named is DNA dC->dU-editing enzyme APOBEC-3G (Homo sapiens, UniProt Q9HC16). The format is functional.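 Further: Dose-response counterscreen measuring inhibition of APOBEC3G DNA deaminase activity, run while confirming APOBEC3A inhibitors.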
A further experiment addresses Importin subunit alpha-1 (Homo sapiens, UniProt P52292). The experiment in a line: compounds lowering YIC probe YFP/CFP ratio – biochemical, dry powder samples, FRET, counter-screen for RanGTP-importin-beta inhibitor project, dose response (AID 493094). The format is functional.
The nature of experiment [16]: Luminescence Cell-Based Dose Retest to Confirm Inhibitors of Cancer Stem Cells. [Related pubchem assays (depositor defined):AID2717, AID2721]. The experiment is classed as functional. As to conditions: Homo sapiens.
Experiment [17] deals with T4, Short transient receptor potential channel 4 (Mus musculus, UniProt Q9QUQ5).
T4 sequence (Q9QUQ5 whole entry): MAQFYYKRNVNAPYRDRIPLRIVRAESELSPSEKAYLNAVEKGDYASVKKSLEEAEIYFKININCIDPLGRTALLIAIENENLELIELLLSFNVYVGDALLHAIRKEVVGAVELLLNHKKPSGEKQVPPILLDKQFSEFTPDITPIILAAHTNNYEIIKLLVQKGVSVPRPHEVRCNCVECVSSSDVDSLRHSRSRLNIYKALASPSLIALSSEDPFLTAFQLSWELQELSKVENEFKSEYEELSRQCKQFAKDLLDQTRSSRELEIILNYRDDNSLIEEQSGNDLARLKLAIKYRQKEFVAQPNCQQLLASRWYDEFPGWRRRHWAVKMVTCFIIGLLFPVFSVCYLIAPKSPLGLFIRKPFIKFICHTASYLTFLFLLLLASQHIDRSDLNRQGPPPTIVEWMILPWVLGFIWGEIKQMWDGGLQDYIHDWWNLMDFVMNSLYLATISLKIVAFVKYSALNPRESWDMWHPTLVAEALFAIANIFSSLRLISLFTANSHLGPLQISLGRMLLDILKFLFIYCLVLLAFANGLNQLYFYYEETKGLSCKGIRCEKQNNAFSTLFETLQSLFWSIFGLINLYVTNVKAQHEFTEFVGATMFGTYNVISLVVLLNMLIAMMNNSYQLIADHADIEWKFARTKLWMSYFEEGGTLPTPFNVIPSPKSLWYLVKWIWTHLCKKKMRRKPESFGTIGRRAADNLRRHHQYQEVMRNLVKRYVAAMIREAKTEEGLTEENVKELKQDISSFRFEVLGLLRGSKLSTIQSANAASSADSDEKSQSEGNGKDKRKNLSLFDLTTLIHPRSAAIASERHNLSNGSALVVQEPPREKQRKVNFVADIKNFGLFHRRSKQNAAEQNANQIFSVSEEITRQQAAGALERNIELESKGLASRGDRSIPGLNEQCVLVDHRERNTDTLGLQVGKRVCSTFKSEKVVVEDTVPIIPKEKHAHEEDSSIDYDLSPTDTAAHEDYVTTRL
Description: potentiation of DAMGO-evoked TRPC4 calcium signal – cell-based, HEK293 TRPC4/mu-opioid, Fluo-4 calcium, EC20 DAMGO, dose response (AID 434941).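 Further: HEK293 cells coexpressing TRPC4 and mu opioid receptor stimulated by EC20 DAMGO.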 The experiment is classed as functional.

In experiment [18] the target is Heat shock protein HSP 90-alpha (Homo sapiens, UniProt P07900). The format is functional, organism-based.
The next experiment deals with Melanocortin receptor 4 (Homo sapiens, UniProt P32245). Description: inhibitors of MC4R cAMP signaling – cell-based, TR-FRET, biased antagonists, dose response (AID 602298).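 Further: antagonist potency against agonist-stimulated cAMP production.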 The format is functional.
The nature of experiment [19]: cAMP pathway inhibition in counterscreen cell line – TR-FRET cAMP detection, counter-screen for MC4R biased antagonist project, dose response (AID 602305).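 Further: U2OS cells stimulated with forskolin near its EC80 as the cAMP inducer; potency is for inhibition of forskolin-stimulated cAMP signaling.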 The experiment is classed as functional, cell-based.

T3 sequence (P11940 whole entry): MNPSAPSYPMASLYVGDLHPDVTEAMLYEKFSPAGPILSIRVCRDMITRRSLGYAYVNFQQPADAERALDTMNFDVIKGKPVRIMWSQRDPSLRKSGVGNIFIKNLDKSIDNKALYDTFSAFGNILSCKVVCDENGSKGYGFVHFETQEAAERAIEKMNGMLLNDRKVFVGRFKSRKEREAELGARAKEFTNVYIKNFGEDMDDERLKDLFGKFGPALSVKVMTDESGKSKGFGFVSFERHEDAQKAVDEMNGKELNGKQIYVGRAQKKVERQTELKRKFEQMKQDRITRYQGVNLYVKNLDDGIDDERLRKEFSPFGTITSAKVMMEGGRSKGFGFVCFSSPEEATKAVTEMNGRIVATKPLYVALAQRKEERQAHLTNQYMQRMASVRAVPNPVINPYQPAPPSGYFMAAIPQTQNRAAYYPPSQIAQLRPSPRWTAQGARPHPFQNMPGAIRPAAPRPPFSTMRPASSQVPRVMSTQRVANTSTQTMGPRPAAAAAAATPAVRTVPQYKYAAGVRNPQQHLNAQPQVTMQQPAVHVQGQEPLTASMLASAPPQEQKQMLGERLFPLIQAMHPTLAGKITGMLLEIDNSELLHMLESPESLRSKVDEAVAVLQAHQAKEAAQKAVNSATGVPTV
Sequence of DNA dC->dU-editing enzyme APOBEC-3G (Q9HC16 whole entry): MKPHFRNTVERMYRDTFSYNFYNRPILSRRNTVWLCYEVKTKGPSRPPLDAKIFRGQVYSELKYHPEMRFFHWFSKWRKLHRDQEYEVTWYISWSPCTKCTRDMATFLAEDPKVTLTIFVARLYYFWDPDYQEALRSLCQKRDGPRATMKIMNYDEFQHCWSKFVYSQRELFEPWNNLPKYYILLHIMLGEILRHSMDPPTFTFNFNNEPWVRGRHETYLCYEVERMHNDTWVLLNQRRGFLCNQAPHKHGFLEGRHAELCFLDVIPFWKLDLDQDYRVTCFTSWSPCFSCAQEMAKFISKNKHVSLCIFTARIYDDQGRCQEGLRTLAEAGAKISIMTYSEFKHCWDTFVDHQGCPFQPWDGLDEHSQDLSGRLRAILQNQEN
Sequence of Melanocortin receptor 4 (P32245 whole entry): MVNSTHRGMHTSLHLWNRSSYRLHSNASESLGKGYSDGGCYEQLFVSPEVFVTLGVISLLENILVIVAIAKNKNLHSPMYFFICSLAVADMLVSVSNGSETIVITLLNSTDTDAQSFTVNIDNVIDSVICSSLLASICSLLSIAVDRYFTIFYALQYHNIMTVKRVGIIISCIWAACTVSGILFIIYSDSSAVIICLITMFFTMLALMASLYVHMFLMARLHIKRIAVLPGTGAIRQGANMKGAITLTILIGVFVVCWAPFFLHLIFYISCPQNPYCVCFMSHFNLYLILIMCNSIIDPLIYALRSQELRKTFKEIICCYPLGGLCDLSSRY
Sequence of Cyclin-dependent kinase 5/CDK5 activator 1 (Q00535 whole entry): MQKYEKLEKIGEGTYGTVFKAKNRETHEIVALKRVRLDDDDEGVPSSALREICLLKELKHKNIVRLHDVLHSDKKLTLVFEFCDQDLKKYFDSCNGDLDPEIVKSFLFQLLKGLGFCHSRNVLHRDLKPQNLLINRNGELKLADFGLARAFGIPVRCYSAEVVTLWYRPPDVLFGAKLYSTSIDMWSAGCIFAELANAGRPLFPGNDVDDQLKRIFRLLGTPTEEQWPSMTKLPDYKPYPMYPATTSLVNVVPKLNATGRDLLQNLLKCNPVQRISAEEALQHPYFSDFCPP
Sequence of Cyclin-dependent kinase 5/CDK5 activator 1 (Q15078 whole entry, further chain): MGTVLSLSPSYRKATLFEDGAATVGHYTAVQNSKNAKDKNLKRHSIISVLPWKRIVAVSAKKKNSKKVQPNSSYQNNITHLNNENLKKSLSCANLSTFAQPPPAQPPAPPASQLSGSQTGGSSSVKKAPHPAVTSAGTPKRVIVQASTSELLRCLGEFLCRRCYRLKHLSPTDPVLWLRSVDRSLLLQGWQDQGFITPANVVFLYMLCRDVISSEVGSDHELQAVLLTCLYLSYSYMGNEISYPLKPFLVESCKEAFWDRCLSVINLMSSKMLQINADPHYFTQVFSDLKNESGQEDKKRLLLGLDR
Sequence of Luciferin 4-monooxygenase (P08659 whole entry): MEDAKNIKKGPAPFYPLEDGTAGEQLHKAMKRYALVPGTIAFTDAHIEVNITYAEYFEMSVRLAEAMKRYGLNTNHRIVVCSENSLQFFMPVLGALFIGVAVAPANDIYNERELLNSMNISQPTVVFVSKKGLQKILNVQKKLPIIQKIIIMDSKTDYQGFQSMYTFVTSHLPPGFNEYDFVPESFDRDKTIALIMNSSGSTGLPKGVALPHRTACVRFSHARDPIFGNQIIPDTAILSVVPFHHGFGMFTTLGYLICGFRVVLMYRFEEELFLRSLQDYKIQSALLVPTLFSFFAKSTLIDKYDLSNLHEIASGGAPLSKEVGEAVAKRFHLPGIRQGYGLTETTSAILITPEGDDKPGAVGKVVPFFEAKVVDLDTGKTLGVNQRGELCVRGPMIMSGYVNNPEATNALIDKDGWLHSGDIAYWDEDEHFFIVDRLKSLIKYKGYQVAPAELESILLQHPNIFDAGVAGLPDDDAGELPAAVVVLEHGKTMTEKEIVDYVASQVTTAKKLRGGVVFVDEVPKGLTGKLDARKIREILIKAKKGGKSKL
Sequence of DNA dC->dU-editing enzyme APOBEC-3A (P31941 whole entry): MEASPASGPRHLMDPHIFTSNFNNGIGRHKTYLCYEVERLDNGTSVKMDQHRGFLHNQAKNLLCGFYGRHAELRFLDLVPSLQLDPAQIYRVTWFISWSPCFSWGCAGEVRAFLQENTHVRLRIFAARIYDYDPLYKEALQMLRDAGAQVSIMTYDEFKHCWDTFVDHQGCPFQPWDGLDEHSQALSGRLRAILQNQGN

As for `CCSc1nc(O)cc(-c2ccccc2)n1`, the IC50 in the experiment with MDA-MB-435 and in “cells” was > 10 µM (inactive) each time.
For the molecule `COC(=O)c1ccccc1NC(=O)N1CCN(C(=O)c2ccco2)CC1`, the IC50 at Coagulation factor XII was > 50 µM (inactive).
Consider `COc1cc(/C=N/NC(=O)c2ccccc2O)ccc1OCC(=O)Nc1ccc([N+](=O)[O-])cc1`, for which the IC50 in experiment [1] and in experiment [2] was > 100 µM (inactive) each time.
Take `CCN(CC)C(=O)c1ccc(NC(=O)Nc2ccccc2F)cc1`: the half-maximal effective concentration (EC50) is 4.45 µM (active) in the experiment on BJ [3]; 4.99 µM (active) in the experiment on BJ [4]; 0.225 µM (active) in experiment [5]; < 0.701 µM (active) in experiment [6]; 9.1 µM (inconclusive) in the experiment with BJ [7]; 3.5 µM (active) in experiment [8]. Also, the EC50 in the experiment on BJ [11] was > 133 µM (inactive). In addition, the values for the AC50 (in [9]; in experiment [10]; in the experiment with HEK293) were 51.6 µM (active), 21.1 µM (active) and 2.08 µM (active), respectively.
On to `COc1cccc(NC(=O)c2ccc[n+](C)c2)c1`, for which the IC50 in [12] is > 100 µM (inactive); in [13], 4.86 µM (active); in experiment [14], 2.33 µM (active); in [15] it was 2.22 µM (active).
Take `Cc1cccc(C)c1NC(=O)C1C(=O)c2sccc2N(C)S1(=O)=O` (stereo not given): the AC50 on Importin subunit alpha-1 is 273 µM (active).
In the case of `CC1CCN(c2nc(Cl)nc(Nc3ccc([N+](=O)[O-])cc3)n2)CC1`, the AC50 in experiment [16] was 2.99 µM (active); in experiment [18], 17.6 µM (active). In addition, the EC50 in experiment [17] is 3.35 µM (active). For the same molecule, the IC50 (at Melanocortin receptor 4; in [19]) was > 64.5 µM (inactive) in each case.
